Patent publication US20250066371A1, “FLUOROALKOXYALKYLENE-DIHYDROIMIDAZO[5,1-D]TETRAZINONE COMPOUNDS AND RELATED COMPOUNDS AND THEIR USE IN TREATING MEDICAL CONDITIONS” (priority 2023, published 2025)
Like-named read-outs stand apart in the source and are kept apart here.

What was measured:
Format in all cases: cell-based
[1] = system: isogenic LN229 gliobastoma cells; test: Anti-cancer assay against isogenic LN229 cell line set, maximum 200 μM (Example 46); settings: concentration up to 200 μM
Description: Isogenic LN229 gliobastoma cells were maintained in Dulbecco's Modified Eagle Medium (DMEM) supplemented with 10% fetal bovine serum, 1% Penicillin/Streptomycin, and 0.1% Fungin. DAY 0: Cells were plated into sterile 96-well plates (Corning Costar 96-well) at a concentration of 500 cells/well using a Multichannel pipettor. Then, assay plates were incubated overnight in a 37° C. 5% CO2 incubator. DAY 1: Compounds were prepared as 50 mM stocks in dimethyl sulfoxide (DMSO) and stored protected from light at room temperature (RT) until use. Prior to compound addition, a two-fold serial dilution of compound stock solutions was performed in DMSO from 30 mM to 0.117 mM in a 96-well Master plate. Vehicle control wells contained DMSO. 97 μL of media was added to each well of a new 96-well plate (Daughter plate) and 3 μL of drug solution from Master plate was added to corresponding wells in the Daughter plate resulting in a 3× plate. Three replicate dilution curves of each compound were run on each assay plate. […]
Assay plates were incubated for 120 hours at 37° C. in a humidified 5% CO2 incubator. DAY 5: Following incubation, cells were fixed with 4% paraformaldehyde and stained with Hoechst dye for nuclei visualization. […] Images were acquired on a BioTek Cytation 5 Cell Imaging Multimode Reader and quantified using Cell Profiler image analysis software. […]

[2] = system: LN229 gliobastoma cells MGMT+/MMR+; test: Anti-cancer assay, isogenic LN229 cells, nuclei count (Example 43); settings: Homo sapiens, read-out: MGMT+ MMR+ Activity
From the text: (§1) Cytotoxicity of the compounds may be measured in short-term cell viability assays against four isogenic LN229 glioblastoma cell lines engineered to be proficient or deficient in MGMT and/or MMR activity by using short hairpin RNAs (shRNAs) targeting MSH2. This approach allows for determination of the relationship between MGMT status, MMR status, and compound activity. LN229 cells are maintained in Dulbecco's Modified Eagle Medium (DMEM) supplemented with 10% fetal bovine serum, 1% Penicillin/Streptomycin, and 0.1% Fungin. DAY 0: Cells are plated into sterile 96-well plates (Corning Costar 96-well) at a concentration of 500 cells/well using a Multichannel pipettor. Then, assay plates are incubated overnight in a 37° C. 5% CO2 incubator. DAY 1: Compounds are prepared as 50 mM stocks in dimethyl sulfoxide (DMSO) and stored protected from light at room temperature (RT) until use. Prior to compound addition, a two-fold serial dilution of compound stock solutions is performed in DMSO from 30 mM to 0.117 mM in a 96-well Master plate. Vehicle control wells contain DMSO. 97 μL of media is added to each well of a new 96-well plate (Daughter plate) and 3 μL of drug solution from Master plate is added to corresponding wells in the Daughter plate resulting in a 3× plate. Three replicate dilution curves of each compound are run on each assay plate. The final concentration of compounds ranges from 300 μM to 1.171 μM (9-point, 2-fold dilution dose response curve), and the final DMSO concentration is 1%.
(§2) Assay plates are incubated for 120 hours at 37° C. in a humidified 5% CO2 incubator. DAY 5: Following incubation, cells are fixed with 4% paraformaldehyde and stained with Hoechst dye for nuclei visualization. Fixation, staining and washing is performed by using a Thermo Scientific Multidrop Combi. Images are acquired on a BioTek Cytation 5 Cell Imaging Multimode Reader and quantified using Cell Profiler image analysis software. Raw cell count data for test compounds are normalized to percent viability relative to the DMSO vehicle control.
(§3) Isogenic LN229 gliobastoma cells were maintained in Dulbecco's Modified Eagle Medium (DMEM) supplemented with 10% fetal bovine serum, 1% Penicillin/Streptomycin, and 0.1% Fungin. DAY 0: Cells were plated into sterile 96-well plates (Corning Costar 96-well) at a concentration of 500 cells/well using a Multichannel pipettor. Then, assay plates were incubated overnight in a 37° C. 5% CO2 incubator. DAY 1: Compounds were prepared as 50 mM stocks in dimethyl sulfoxide (DMSO) and stored protected from light at room temperature (RT) until use. Prior to compound addition, a two-fold serial dilution of compound stock solutions was performed in DMSO from 30 mM to 0.117 mM in a 96-well Master plate. Vehicle control wells contained DMSO. 97 μL of media was added to each well of a new 96-well plate (Daughter plate) and 3 μL of drug solution from Master plate was added to corresponding wells in the Daughter plate resulting in a 3× plate. Three replicate dilution curves of each compound were run on each assay plate. The final concentration of compounds ranged from 300 μM to 1.171 μM (9-point, 2-fold dilution dose response curve), and the final DMSO concentration was 1%.
as §2, with “plates were” for “plates are”, “cells were” for “cells are”, “washing was” for “washing is”, “Images were” for “Images are”, “compounds were” for “compounds are”

[3] = system: LN229 gliobastoma cells MGMT+/MMR−; test: as above; settings: Homo sapiens, read-out: MGMT+ MMR− Activity
From the text: as §1, §2, §3
as §2, with “plates were” for “plates are”, “cells were” for “cells are”, “washing was” for “washing is”, “Images were” for “Images are”, “compounds were” for “compounds are”

[4] = system: LN229 gliobastoma cells MGMT−/MMR−; test: Anti-cancer assay, isogenic LN229 cells, nuclei count (Examples 43, 46); settings: Homo sapiens, read-out: MGMT− MMR− Activity
From the text: as §1, §2, §3
as §2, with “plates were” for “plates are”, “cells were” for “cells are”, “washing was” for “washing is”, “Images were” for “Images are”, “compounds were” for “compounds are”, “control. […]” for “control.”

[5] = system: LN229 gliobastoma cells MGMT−/MMR+; test: as above; settings: Homo sapiens, read-out: MGMT− MMR+ Activity
From the text: as §1, §2, §3
as §2, with “plates were” for “plates are”, “cells were” for “cells are”, “washing was” for “washing is”, “Images were” for “Images are”, “compounds were” for “compounds are”, “control. […]” for “control.”

[6] = LN-229, LN229 MGMT+/MMR+, 120 hours
[7] = LN-229, LN229 MGMT+/MMR−, 120 hours
[8] = LN-229, LN229 MGMT−/MMR−, 120 hours
[9] = LN-229, LN229 MGMT−/MMR+, 120 hours

IC50 [2, 6] [µM] | IC50 [3, 7] [µM] | IC50 [4, 8] [µM] | IC50 [5, 9] [µM] | SMILES | anti-cancer activity against LN229 isogenic cell line set [1] | IC50 ([2]; LN-229, 120 h) [µM] | IC50 ([3]; LN-229, 120 h) [µM] | IC50 ([4]; LN-229, 120 h) [µM] | IC50 ([5]; LN-229, 120 h) [µM]
– | – | – | – | COCCn1nnc2c(C(N)=O)ncn2c1=O [Compound A2] | no detectable anti-cancer activity | – | – | – | –
20 to 50 | 20 to 50 | 20 to 50 | 20 to 50 | Cc1cnc(-c2ncn3c(=O)n(CCOC(F)(F)F)nnc23)o1 [II-3, 8-(5-Methyloxazol-2-yl)-3-(2-(trifluoromethoxy)ethyl) imidazo[5,1-d][1,2,3,5]tetrazin-4(3H)-one] | – | – | – | – | –
> 100 | > 100 | > 100 | > 100 | NC(=O)c1ncn2c(=O)n(CCOC(F)F)nnc12 [Compound I-44] | – | – | – | – | –
– | – | – | – | O=C(Nc1ccccc1)c1ncn2c(=O)n(CCOC(F)(F)F)nnc12 [Compound I-9, 4-Oxo-N-phenyl-3-(2-(trifluoromethoxy)ethyl)-3,4-dihydroimidazo[5,1-d][1,2,3,5]tetrazine-8-carboxamide] | – | 50 to 100 | > 100 | < 20 | 20 to 50
20 to 50 | 50 to 100 | 20 to 50 | 20 to 50 | O=C(c1ncn2c(=O)n(CCOC(F)(F)F)nnc12)N1CCCC1 [Compound I-7, 8-(Pyrrolidine-1-carbonyl)-3-(2-(trifluoromethoxy)ethyl)imidazo[5,1-d][1,2,3,5]tetrazin-4(3H)-one] | – | – | – | – | –
< 20 | 20 to 50 | < 20 | < 20 | O=c1n(CCOC(F)(F)F)nnc2c(Cl)ncn12 [Compound I-39, 8-Chloro-3-(2-(trifluoromethoxy)ethyl)imidazo[5,1-d][1,2,3,5]tetrazin-4(3H)-one] | – | – | – | – | –
– | – | – | – | CCOC(=O)c1ncn2c(=O)n(CCOC(F)(F)F)nnc12 [Compound I-30, Ethyl 4-Oxo-3-(2-(trifluoromethoxy)ethyl)-3,4-dihydroimidazo[5,1-d][1,2,3,5]tetrazine-8-carboxylate] | – | > 100 | > 100 | < 20 | > 100
